One substance from US9402875B2, “Amidated dopamine neuron stimulating peptide restoration of mitochondrial activity” (University of Kentucky Research Foundation, priority 2006, dated 2016) can be followed below.

Entries after “also recorded” stand apart in the source; their conditions may differ. Ends that are not written are not given here.

The test system of test [1] is E14 SD rat embryo primary dopaminergic neurons from the ventral mesencephalon. The test is classed as cell-based. On the procedure: DNSP-11 treatment of Mesencephalic Cells: Timed pregnant SD rats (Harlan) were used to obtain the ventral mesencephalon from E14 fetuses. The dissected tissue was collected in cold Neurobasal™ medium and rinsed twice with cold Dulbecco's PBS. The cells were chemically (TrypLE®) and mechanically dissociated to yield a single cell suspension. The solution was centrifuged at 169 g for 6 minutes and the pellet was resuspended in Dulbecco's Modified Eagle Medium (DMEM). Cells were plated in a 25 μL micro-island at a density of 4000 cells/μL on poly-D-lysine coated 24-well plates (Sigma). Following adherence, cells were supplemented with warm NEUROBASAL™ media containing 2 mM glutamine, 1×N2, and 100 units of penicillin/streptomycin. Neurotrophic compounds were added at each media addition, including initial plating and DIV 2. A dose response of the peptides (0.03 ng to 10 ng/mL) was added to a 24-well plate following media supplementation.
The neurotrophic effects of DNSP-11 were studied by comparing its effects to the well-known effects of GDNF on the maintenance of primary mesencephalic cell cultures from E14 SD rat embryos. E14 SD rat embryo primary dopaminergic neurons from the ventral mesencephalon were grown for 5 days in vitro and neurotrophic molecules were added at each media change, including initial plating and day 2. […] These effects were similar to those observed for GDNF in these cells, including an increase in the size of TH+ neurons, which was not observed for DNSP-11 (Table 4).
In Table 1, cell survival and morphological parameters were quantified for control (citrate buffer) and experimental (0.1 ng/ml GDNF or 0.1 ng/ml DNSP-11) conditions. For morphology, five fields per well (minimum of 15 cells/field; 3-4 independent experiments) were photographed at 20× magnification and quantified using a Bioquant Image Analysis System. […] Soma size was not increased by the addition of DNSP-11. A one-way ANOVA was used to test for significance among groups, followed by a Newman-Keuls post hoc analysis. Significance between control and experimental conditions was determined at *p<0.05 and **p<0.01.

In test [2] the test system is mitochondria of substantia nigra and striatum. The test is described as follows: Mitochondrial State III respiration 28 days after bilateral intranigral DNSP-11. The test is classed as in vivo, rat. Conditions: 28 days post bilateral intranigral 30 μg. Here is the method:
Six five-month-old male F344 rats received bilateral intranigral injections of 30 μg DNSP-11. Six age and sex-matched controls received injections of the same volume of vehicle (citrate buffer). Twenty-eight days after test material administration, the animals were euthanized by CO2 anesthesia and the brain samples rapidly dissected. The striatum and substantia nigra were isolated quickly and carefully using a rat brain matrix for F344 rats.
Mitochondrial respiration was assessed using a miniature Clark-type electrode, in a sealed, thermostatic and continuously stirred chamber. Mitochondria were added to the chamber to yield a final protein concentration of 1 mg/ml. The substrate concentrations were 5.0 mM/2.5 mM for glutamate/malate and pyruvate/malate or 10 mM for succinate+[…] rotenone or α-glycerophosphate. State 3 respiration was initiated by the addition of 150 ηmols ADP. The respiratory control ratio was calculated as respiration in the presence of ADP (state 3)/respiration in absence of ADP (state 4). ADP/0 ratios were determined by dividing the amount of ADP phosphorylated during State III respiration by the amount of oxygen consumed. NAD-linked substrates, e.g. glutamate and pyruvate, utilize complexes I, III, IV in their oxidation, succinate utilizes complexes II, III, IV and α-glycerophosphate ultilizes III, IV. […]

For a further test, the system named is B65 cells. Nature of the test: Caspase-3 activity assay, mitochondrial toxins. In kind it is cell-based. Here is the method:
MN9D cells and B65 cells were cultured in Dulbecco's Modified Eagle's Medium (DMEM; 11995 (containing pyridoxol HCl); Sigma, St. Louis, Mo.) supplemented with 10% fetal bovine serum (HyClone, Logan, Utah), 50 U/mL penicillin and streptomycin. For each assay the cells were treated with mitochondrial-specific environmental toxins, i.e., MPP+, rotenone, and/or TaClo, and with or without DNSP-11. After incubation with the toxins, the cells were plated on 24-well poly-D-lysine plates (50,000 cells/well) for TUNEL assay (as described below) or 100,000 cell/well for caspase-3 assay in DMEM medium with 1% (v/v) penicillin-streptomycin only (as described below).
B65 cells were plated on 24-well poly-D-lysine plates in DMEM and 50u/ml penicillin and streptomycin. Cells incubated in either 50 nM, 100 nM, or 250 nM rotenone or 10 μM, […] or 50 μM TaClo for 1 to 12 hours at 37° C. in 5% CO2, following pretreatment (1 to 30 minutes) with or without 10 nM or 100 nM DNSP-11. The cells were then lysed and protein level measured by BCA assay (BioRad). The protein level were normalized for every experiment. The Enz Chek Caspase-3 Kit (Invitrogen) was used to detect caspase-3 activity and fluorescence was read on fluorescence reader (excitation/emission 496/520 nm). Data are expressed as % of control and were repeated a minimum of three times.

A further test deals with Erk1/2. The test is described as follows: ERK1/2 activation by western blot. In kind it is cell-based. Conditions: DNSP-11 0.1 uM or 1 uM or GDNF 50 ng/ml for 20 minutes. Here is the method: MN9D and B65 cell were cultured in DMEM; 11995 (containing pyridoxol HCl; Sigma, St. Louis, Mo.) supplemented with 10% fetal bovine serum (HyClone, Logan, Utah), 50 U/mL penicillin and streptomycin with DNSP-11 (0.1 uM or 1 uM) or GDNF (50 ng/ml) for 20 minutes. The cells were then solubilized in Triton-X-100/glycerol lysis buffer and subjected to electrophoresis and western blotting as partially described previously (Jiang et al., Mol Biol Cell 14:859-70 (2003)). To detect phosphorylated Erk (#4377 Cell Signaling) and ERK (#4696 Cell Signaling) by immunoblotting, the cells were directly lysed in the sample loading buffer. Secondary IRDye 700X and IRDye800 conjugated, fluorescent antibodies (Rockland Inc.) were used to detect signal with Odyssey v3.0 scanning software. Several blots were analyzed to determine the linear range of the fluorescence signals, and quantifications were performed using densitometry analysis.
(In general: In western blotting, separated proteins are transferred to a membrane and probed.)

Consider “PPEAPAEDRSL-NH2 [DNSP-11, PPEAPAEDRSL-amide]”, for which the Cell survival result in test [1] (0.1 ng/ml, 5 days in vitro, control 100) was “*161 ± 17”. In addition, the “Average branches per neuron” value in test [1] (0.1 ng/ml, controls 3.8 ± 0.2 (GDNF), 3.1 ± 0.2 (DNSP-11)) is listed as “**4.4 ± 0.3”. The “Soma size (um^2)” value in test [1] (0.1 ng/ml, controls 171 ± 4 (GDNF), 168 ± 3 (DNSP-11)) came out at 165 ± 5 um^2. Moreover, in test [1] (0.1 ng/ml, controls 242 ± 12 (GDNF), 222 ± 11 (DNSP-11)), the “Combined neurite length (um)” value was “**306 ± 23 um”. Also, the “TH+ neuron counts” value in test [1] (0.03, 0.1, 1.0 and 10 ng/ml) was “significantly increase”. In addition, the “State III oxygen consumption / oxidative phosphorylation vs vehicle” value in test [2] (striatum) was “reached statistical significance; also recorded: increased”; in test [2] (substantia nigra, n=2), “trend towards an increase; also recorded: increased”. Further, the “caspase-3 activity, DNSP-11 alone” value in the test with B65 cells (no toxin) is reported as “no significant effect”. Also, the “caspase-3 activity, protection from toxins” value in the test on B65 cells (rotenone or TaClo 1 to 12 hours, pretreatment with 10 nM or 100 nM DNSP-11) is “significant protection”. The “phosphorylation of Erk1/2 (ratio of phosphorylated to non-phosphorylated)” value in the test with Erk1/2 (B65 cells) and with Erk1/2 (MN9D cells) was “increases significantly” in each case.
